Results from patent publication US8912188B2, “Substituted quinoxaline carboxylic acids for the inhibition of PASK” (BioEnergenix, LLC, priority 2011, dated 2014).

Target: T1, PASK (Invitrogen) (Homo sapiens, UniProt Q96RG2)
T1 construct: IC50 Kinase Domain; purchased Invitrogen
Assay: PAS Kinase FRET Assay
Assay type: biochemical
Conditions: PAS kinase TR-FRET assay (665 nm/615 nm), 2 hours at 25° C.; read-out: IC50 Kinase Domain
Excerpt: Biochemical Assay for hPASK Activity
The aim of the FRET assay is to determine the inhibition potential of test compounds on targeted kinase. This assay platform provides a homogenous screening method for measuring kinase activity by quantitating the amount of phospho-substrate in solution following a kinase reaction.
In the presence of kinase and ATP, the Ulight-peptide is phosphorylated and captured by an anti-phospho-substrate antibody, which brings the Eu chelate donor and Ulight acceptor dyes into close proximity.
Titration of kinase at 1 mM ATP was achieved via the following protocol. […] The contents of the plate were incubated at RT for 1 h. The reaction was stopped by adding 5 μl of stop solution to each test well followed by mixing and incubation at RT for 10 minutes. 5 μl of detection mix (detection antibody diluted in detection buffer) was added; the contents of the plate were mixed and then incubated in the dark for 1 hour at RT. […] The results were graphed to calculate the EC50.
Titration of ATP at the EC50 concentration of kinase to determine ATP Km,app. was performed using the following method. […] The contents of the plate were and incubated at RT for 1 h. The reaction was stopped by adding 5 μl of stop solution to each test well followed by mixing and incubation at RT for 10 minutes. […] (detection antibody diluted in detection buffer) was added; the contents of the plate were mixed and then incubated in the dark for 1 hour at RT. […] The results were graphed to calculate the EC50 as the ATP Km,app.
Compound screening was done via the following method. 10 mM stock solution of test compound in DMSO was prepared by dissolving test compound in DMSO at RT for 1 hour, and then sonicating at 100% output for 8 minutes. If compound is not soluble under this condition, it was diluted to 3 mM. Kinase reaction buffer was prepared containing 10 mM MgCl2, 50 mM HEPES, 1 mM EGTA, 0.01% TWEEN-20, 2 mM DTT. […] As a positive control, 2.5 μl of positive compound was added to assay wells, and 2.5 μl of DMSO to assay wells as vehicle control. Kinase solution was prepared in reaction buffer at 2× final assay concentration. Kinase solution (5 μl) was added to each well of the assay plate. The substrate and ATP solution was prepared in kinase reaction buffer at 4× final assay concentration. The kinase reaction was started by adding 2.5 μl of substrate+ATP mix solution to each well of the assay plate. The plate is mixed on a plate shaker; then covered and allowed to react for 2 hours in the dark at 25° C. without shaking. The reaction was stopped by adding 5 μl of stop solution to each test well followed by mixing and incubation at RT for 10 minutes in the dark. 5 μl of detection mix (detection antibody diluted in detection buffer) was added; the contents of the plate were mixed and then incubated in the dark for 1 hour at RT.

T1 sequence (Q96RG2 999-1251 limits assumed): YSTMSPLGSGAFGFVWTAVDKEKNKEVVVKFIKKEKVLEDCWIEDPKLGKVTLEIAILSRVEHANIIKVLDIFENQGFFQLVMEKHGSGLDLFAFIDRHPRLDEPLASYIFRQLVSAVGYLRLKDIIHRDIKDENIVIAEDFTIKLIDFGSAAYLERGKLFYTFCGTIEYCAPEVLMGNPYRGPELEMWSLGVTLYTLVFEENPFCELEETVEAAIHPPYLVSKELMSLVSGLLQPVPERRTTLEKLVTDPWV

SMILES | IC50 [µM]
CC(C)N(C)c1nc2cc(C(=O)O)ccc2nc1-c1cc2cc(F)ccc2s1 [Example 24, 2-(5-Fluorobenzo[b]thiophen-2-yl)-3-(isopropyl(methyl)amino)quinoxaline-6-carboxylic acid] | < 10
CC(C)N(C)c1nc2cc(C(=O)O)ccc2nc1-c1ccn[nH]1 [Example 43, 3-(Isopropyl(methyl)amino)-2-(1H-pyrazol-5-yl)quinoxaline-6-carboxylic acid] | < 10
CC(C)N(C)c1nc2cc(C(=O)O)ccc2nc1-c1ccc2c(cnn2C)c1 [Example 25, 3-(Isopropyl(methyl)amino)-2-(1-methyl-1H-indazol-5-yl)quinoxaline-6-carboxylic acid] | < 10
CCN1CCN(c2nc3cc(C(=O)O)ccc3nc2-c2ccc(F)cc2)[C@@H](C)C1 [Example 138, (S)-3-(4-Ethyl-2-methylpiperazin-1-yl)-2-(4-fluorophenyl)quinoxaline-6-carboxylic acid] | < 10
Cc1cc(F)ccc1-c1nc2ccc(C(=O)O)cc2nc1N(C)C(C)C [Example 118, 2-(4-Fluoro-2-methylphenyl)-3-(isopropyl(methyl)amino)quinoxaline-6-carboxylic acid] | < 10
CN(c1nc2cc(C(=O)O)ccc2nc1-c1ccc(F)cc1)[C@H]1CC[C@H](O)CC1 [Example 125, 2-(4-Fluorophenyl)-3-(((1r,4r)-4-hydroxycyclohexyl)(methyl)amino)quinoxaline-6-carboxylic acid] | < 10
CC(C)N(C)c1nc2cc(C(=O)O)ccc2nc1-c1ccc(F)nc1 [Example 13, 2-(6-Fluoropyridin-3-yl)-3-(isopropyl(methyl)amino)quinoxaline-6-carboxylic acid] | < 10
CC(C)N(C)c1nc2cc(C(=O)O)ccc2nc1-c1cnn(C)c1 [Example 90, 3-[Methyl(propan-2-yl)amino]-2-(1-methyl-1H-pyrazol-4-yl)quinoxaline-6-carboxylic acid] | < 10
O=C(O)c1ccc2nc(-c3cc4ccccc4s3)c(N3CCCCC3)nc2c1 [Example 53, 2-(Benzo[b]thiophen-2-yl)-3-(piperidin-1-yl)quinoxaline-6-carboxylic acid] | < 10
CC(C)N(C)c1nc2cc(C(=O)O)ccc2nc1-c1ccc(C(F)(F)F)cc1 [Example 136, 3-(Isopropyl(methyl)amino)-2-(4-(trifluoromethyl)phenyl)quinoxaline-6-carboxylic acid] | < 10
C[C@H]1CCCN1c1nc2cc(C(=O)O)ccc2nc1-c1ccc2[nH]ccc2c1 [Example 40, (S)-2-(1H-Indol-5-yl)-3-(2-methylpyrrolidin-1-yl)quinoxaline-6-carboxylic acid] | < 10
CCCN(CC)c1nc2cc(C(=O)O)ccc2nc1-c1ccc(F)cc1 [Example 139, 3-[Ethyl(propyl)amino]-2-(4-fluorophenyl)quinoxaline-6-carboxylic acid] | < 10
CC(C)N(C)c1nc2cc(C(=O)O)ccc2nc1-c1ccc2c(c1)nnn2C [Example 95, 3-(Isopropyl(methyl)amino)-2-(1-methyl-1H-benzo[d][1,2,3]triazol-5-yl)quinoxaline-6-carboxylic acid] | > 10
CN(Cc1ccccn1)c1nc2cc(C(=O)O)ccc2nc1-c1ccc(F)cc1 [Example 134, 2-(4-Fluorophenyl)-3-[methyl(pyridin-2-ylmethyl)amino]quinoxaline-6-carboxylic acid] | < 10
CC(C)N(C)c1nc2cc(C(=O)O)ccc2nc1-c1ccc(NC(=O)OC(C)(C)C)nc1 [Example 10, 2-(6-(tert-Butoxycarbonylamino)pyridin-3-yl)-3-(isopropyl(methyl)amino)quinoxaline-6-carboxylic acid] | < 10
CC(C)N(C)c1nc2cc(C(=O)O)ccc2nc1-c1ccc(N2CCCC2)nc1 [Example 12, 3-(Isopropyl(methyl)amino)-2-(6-(pyrrolidin-1-yl)pyridin-3-yl)quinoxaline-6-carboxylic acid] | > 10
C[C@H]1CCCN1c1nc2cc(C(=O)O)ccc2nc1-c1cc2cc(F)ccc2o1 [Example 41, (S)-2-(5-Fluorobenzofuran-2-yl)-3-(2-methylpyrrolidin-1-yl)quinoxaline-6-carboxylic acid] | < 10

Now from value to molecule:

IC50 [µM] | SMILES
< 10 | O=C(O)c1ccc2nc(-c3cc4cc(F)ccc4o3)c(N3CCCC3)nc2c1 [Example 62, 2-(5-Fluoro-1-benzofuran-2-yl)-3-(pyrrolidin-1-yl)quinoxaline-6-carboxylic acid]
< 10 | CC(C)N(C)c1nc2cc(C(=O)O)c(F)cc2nc1-c1ccc(F)cc1 [Example 123, 7-Fluoro-2-(4-fluorophenyl)-3-[methyl(propan-2-yl)amino]quinoxaline-6-carboxylic acid]
< 10 | CC(C)N(C)c1nc2cc(C(=O)O)ccc2nc1-c1c[nH]nc1C(F)(F)F [Example 9, 3-(Isopropyl(methyl)amino)-2-(3-(trifluoromethyl)-1H-pyrazol-4-yl)quinoxaline-6-carboxylic acid]
< 10 | CC(C)N(C)c1nc2cc(C(=O)O)ccc2nc1-c1cncc(Br)c1 [Example 7, 2-(5-Bromopyridin-3-yl)-3-(isopropyl(methyl)amino)quinoxaline-6-carboxylic acid]
< 10 | CC(C)N(C)c1nc2cc(C(=O)O)ccc2nc1-c1ccc2cnn(C)c2c1 [Example 5, 3-(Isopropyl(methyl)amino)-2-(1-methyl-1H-indazol-6-yl)quinoxaline-6-carboxylic acid]
< 10 | CC(C)N(C)c1nc2cc(C(=O)O)ccc2nc1-c1ccc(-c2ccc(F)cc2)o1 [Example 84, 2-[5-(4-Fluorophenyl)furan-2-yl]-3-[methyl(propan-2-yl)amino]quinoxaline-6-carboxylic acid]
< 10 | C[C@H]1CCCN1c1nc2cc(C(=O)O)ccc2nc1-c1ccc2[nH]ncc2c1 [Example 47, 2-(1H-Indazol-5-yl)-3-[(2S)-2-methylpyrrolidin-1-yl]quinoxaline-6-carboxylic acid]
< 10 | C[C@H]1CNCCN1c1nc2cc(C(=O)O)ccc2nc1-c1ccc(F)cc1 [Example 114, 2-(4-Fluorophenyl)-3-[(2S)-2-methylpiperazin-1-yl]quinoxaline-6-carboxylic acid]
< 10 | CC(C)N(C)c1nc2cc(C(=O)O)ccc2nc1-c1ccc2nccnc2c1 [Example 60, 3-(isopropyl(methyl)amino)-2,7′-biquinoxaline-6-carboxylic acid]
< 10 | CCC1CCCCN1c1nc2cc(C(=O)O)ccc2nc1-c1ccc(F)cc1 (stereo not drawn) [Example 142, 3-(2-Ethylpiperidin-1-yl)-2-(4-fluorophenyl)quinoxaline-6-carboxylic acid]
< 10 | C[C@H]1CCCN1c1nc2cc(C(=O)O)ccc2nc1-c1coc2ccccc12 [Example 82, 2-(1-Benzofuran-3-yl)-3-[(2S)-2-methylpyrrolidin-1-yl]quinoxaline-6-carboxylic acid]
< 10 | CC(C)N(C)c1nc2cc(C(=O)O)ccc2nc1-c1ccc2scnc2c1 [Example 56, 2-(Benzo[d]thiazol-5-yl)-3-(isopropyl(methyl)amino)quinoxaline-6-carboxylic acid]
< 10 | CS(=O)(=O)N1CCN(c2nc3cc(C(=O)O)ccc3nc2-c2ccc(F)cc2)CC1 [Example 130, 2-(4-Fluorophenyl)-3-(4-(methylsulfonyl)piperazin-1-yl)quinoxaline-6-carboxylic acid]
